Key:
[1] = Particle size and PDI of lipid nanoparticles by dynamic light scattering; type: physicochemical; conditions: lipid nanoparticles with luciferase mRNA; ionizable lipid/cholesterol/DSPC/DMG-PEG2000 50/38.5/10/1.5 mol%
Method: (§1) Lipid nanoparticles were prepared by (1) dissolving and mixing ionizable lipid compounds, cholesterol, phospholipids and polyethylene glycolated lipids in ethanol at (molar percentages) 50%, 38.5%, 10% and 1.5%, respectively; (2) dissolving the mRNA active ingredient in 25 mM sodium acetate solution (pH=4.5); (3) using an automated high-throughput microfluidic system to mix the organic phase containing the lipid mixture and the aqueous phase containing the mRNA component in the flow ratio range of 1:1 to 1:4 at a mixing speed of 10 mL/min to 18 mL/min; (4) the prepared lipid nanoparticles (N/P ratio=6) were diluted with phosphate buffer solution and the nanoparticle solutions were ultrafiltered to the original preparation volume using ultrafiltration tubes (purchased from Millipore) with a cut-off molecular weight of 30 kDa; and (5) the obtained nanoparticles were filtered through a sterile 0.2 μm filter membrane and then stored in a sealed glass vial at low temperature.
(§2) The particle size and particle size dispersity index (PDI) of the prepared lipid nanoparticles were measured using a Zetasizer Pro (purchased from Malvern Instruments Ltd) and a DynaPro NanoStar (purchased from Wyatt) dynamic light scattering instrument. The degree of RNA encapsulation by lipid nanoparticles was characterized by the Encapsulation Efficiency %, which reflects the degree of binding of lipid nanoparticles to RNA fragments. This parameter was measured by the method of Quant-it™ RiboGreen RNA Assay (purchased from Invitrogen). Lipid nanoparticle samples were diluted in TE buffer (10 mM Tris-HCl, 1 mM EDTA, pH=7.5). A portion of the sample solution was removed, to which 0.5% Triton (Triton X-100) was added, and then allowed to stand at 37° C. for 30 minutes. Immediately after the addition of RIBOGREEN® reaction solution, the fluorescence values were read on a Varioskan LUX multifunctional microplate reader (purchased from Thermofisher) at 485 nm for absorption and 528 nm for emission to give the encapsulation efficiency values.

C57BL/6 mice = assay: In vivo delivery of luciferase mRNA lipid nanoparticles in mice (bioluminescence imaging); conditions: intravenous, single dose 0.5 mg/kg luciferase mRNA
Method: The delivery effect and safety of nanoparticles encapsulated with luciferase mRNA (Trilink, L-7202) in mice were evaluated. The test mice were SPF-grade C57BL/6 mice, female, 6-8 weeks old, weighing 18-22 g, and were purchased from SPF (Beijing) Biotechnology Co., Ltd. All animals were acclimatized for more than 7 days prior to the experiment, and had free access to food and water during the experiment. The conditions include alternating light and dark for 12/12 h, the indoor temperature of 20-26° C. and the humidity of 40-70%. The mice were randomly grouped. The lipid nanoparticles encapsulated with luciferase mRNA prepared above were injected into mice by intravenous administration at a single dose of 0.5 mg/kg mRNA, and the mice were subjected to in vivo bioluminescence assay using a Small Animal In Vivo Imaging System (IVIS LUMINA III, purchased from PerkinElmer) at 6 h after administration. The assay was performed as follows: D-luciferin solution was prepared in saline at a concentration of 15 mg/mL, and each mouse was given the substrate by intraperitoneal injection. At ten minutes after administration of the substrate, the mice were anesthetized in an anesthesia chamber with isoflurane at a concentration of 2.5%. The anesthetized mice were placed in IVIS for fluorescence imaging, and data acquisition and analysis were performed on the concentrated distribution area of fluorescence.
The in vivo delivery efficiency of lipid nanoparticle carriers was expressed as the mean values of fluorescence intensity and total photon count in different animals within the same subject group, as shown in Table 5-Table 11. Higher values of fluorescence intensity and total photon count indicate higher in vivo delivery efficiency of this mRNA fragment by lipid nanoparticles. The lipid nanoparticles containing the cationic lipids of the present disclosure have good in vivo delivery efficiency.

[2] = Encapsulation efficiency of lipid nanoparticles (Quant-it RiboGreen RNA Assay); type: physicochemical; conditions: lipid nanoparticles with luciferase mRNA
Method: as §1, §2

CCCCCCCCCCCOC(=O)OCCCCCN(CCCCO)CCCCCC(C)(C)COC(=O)CC(CCCCCCC)CCCCCCC [31b]
Particle size (nm) [1]: 118.73 nm
Particle-size distribution (PDI) [1]: 0.07
Total photon count in vivo at 6 hours after administration (Total Flux) (C57BL/6 mice): 1.87E+10
Encapsulation efficiency (%) [2]: 95.73%

CCCCCCCCCOC(=O)OCCCCCCN(CCCO)CCCCCCC(C)(C)C(=O)OC(CCCCCCCC)CCCCCCCC [32a]
Particle size (nm) [1]: 129.00 nm
Particle-size distribution (PDI) [1]: 0.10
Total photon count in vivo at 6 hours after administration (Total Flux) (C57BL/6 mice): 1.24E+10
Encapsulation efficiency (%) [2]: 83.51%

CCCCCCCCCOC(=O)OCCCCCCCN(CCCCO)CCCCCC(C)(C)COC(=O)CC(CCCCCCC)CCCCCCC [32b]
Particle size (nm) [1]: 116.50 nm
Particle-size distribution (PDI) [1]: 0.16
Total photon count in vivo at 6 hours after administration (Total Flux) (C57BL/6 mice): 3.52E+10
Encapsulation efficiency (%) [2]: 95.31%

CCCCCCCCCOC(=O)OCCCCCCN(CCO)CCCCCCC(C)(C)C(=O)OCC(CCCCCCC)CCCCCCC [33a]
Particle size (nm) [1]: 111.60 nm
Particle-size distribution (PDI) [1]: 0.17
Total photon count in vivo at 6 hours after administration (Total Flux) (C57BL/6 mice): 1.09E+11
Encapsulation efficiency (%) [2]: 86.98%

CCCCCCCCCC(=O)OCC(C)(C)CCCCCN(CCO)CCCCCCOC(=O)OCC(CCCCCCCC)CCCCCCCC [33b]
Particle size (nm) [1]: 85.80 nm
Particle-size distribution (PDI) [1]: 0.15
Total photon count in vivo at 6 hours after administration (Total Flux) (C57BL/6 mice): 8.23E+10
Encapsulation efficiency (%) [2]: 94.85%

CCCCCCCCCOC(=O)OCCCCCCN(CCO)CCCCCCC(C)(C)C(=O)OCCC(CCCCCC)CCCCCC [34a]
Particle size (nm) [1]: 116.67 nm
Particle-size distribution (PDI) [1]: 0.12
Total photon count in vivo at 6 hours after administration (Total Flux) (C57BL/6 mice): 3.14E+10
Encapsulation efficiency (%) [2]: 95.73%

CCCCCCCCCC(=O)OCC1(CCCCCN(CCO)CCCCCCOC(=O)OCC(CCCCCCCC)CCCCCCCC)CC1 [34b]
Particle size (nm) [1]: 85.20 nm
Particle-size distribution (PDI) [1]: 0.19
Total photon count in vivo at 6 hours after administration (Total Flux) (C57BL/6 mice): 2.78E+10
Encapsulation efficiency (%) [2]: 97.61%

CCCCCCCCCOC(=O)OCCCCCCN(CCO)CCCCCCC(C)(C)C(=O)OCCCC(CCCCC)CCCCC [35a]
Particle size (nm) [1]: 126.63 nm
Particle-size distribution (PDI) [1]: 0.22
Total photon count in vivo at 6 hours after administration (Total Flux) (C57BL/6 mice): 3.01E+10
Encapsulation efficiency (%) [2]: 95.00%

CCCCCCCCCC(=O)OCC(C)(C)CCCCCN(CCCCO)CCCCCCOC(=O)OCC(CCCCCCCC)CCCCCCCC [35b]
Particle size (nm) [1]: 100.40 nm
Particle-size distribution (PDI) [1]: 0.21
Total photon count in vivo at 6 hours after administration (Total Flux) (C57BL/6 mice): 3.77E+10
Encapsulation efficiency (%) [2]: 96.35%

CCCCCCCCCCCOC(=O)OCCCCN(CCO)CCCCCCC(C)(C)C(=O)OC(CCCCCCCC)CCCCCCCC [36a]
Particle size (nm) [1]: 104.80 nm
Particle-size distribution (PDI) [1]: 0.15
Total photon count in vivo at 6 hours after administration (Total Flux) (C57BL/6 mice): 2.51E+10
Encapsulation efficiency (%) [2]: 92.41%

CCCCCCCCCC(=O)OCC1(CCCCCN(CCCCO)CCCCCCOC(=O)OCC(CCCCCCCC)CCCCCCCC)CC1 [36b]
Particle size (nm) [1]: 112.50 nm
Particle-size distribution (PDI) [1]: 0.19
Total photon count in vivo at 6 hours after administration (Total Flux) (C57BL/6 mice): 3.84E+10
Encapsulation efficiency (%) [2]: 96.10%

CCCCCCCCCCCOC(=O)OCCCCN(CCO)CCCCCCC(C)(C)C(=O)OCC(CCCCCCC)CCCCCCC [37a]
Particle size (nm) [1]: 110.67 nm
Particle-size distribution (PDI) [1]: 0.15
Total photon count in vivo at 6 hours after administration (Total Flux) (C57BL/6 mice): 3.54E+10
Encapsulation efficiency (%) [2]: 92.14%

CCCCCCCC(CCCCCCC)CCOC(=O)OCCCCCCN(CCO)CCCCCC(C)(C)COC(=O)CCC(CCCCCC)CCCCCC [37b]
Particle size (nm) [1]: 83.72 nm
Particle-size distribution (PDI) [1]: 0.16
Total photon count in vivo at 6 hours after administration (Total Flux) (C57BL/6 mice): 3.72E+10
Encapsulation efficiency (%) [2]: 95.15%

CCCCCCCCCCCOC(=O)OCCCCN(CCO)CCCCCCC(C)(C)C(=O)OCCC(CCCCCC)CCCCCC [38a]
Particle size (nm) [1]: 114.03 nm
Particle-size distribution (PDI) [1]: 0.13
Total photon count in vivo at 6 hours after administration (Total Flux) (C57BL/6 mice): 1.39E+10
Encapsulation efficiency (%) [2]: 94.51%

CCCCCCCCCC(=O)OCC(C)(C)CCCCCN(CCCCCCCC(=O)OC(CCCCCCCC)CCCCCCCC)C(=O)SCCCCN(C)C [38b]
Particle size (nm) [1]: 102.50 nm
Particle-size distribution (PDI) [1]: 0.11
Total photon count in vivo at 6 hours after administration (Total Flux) (C57BL/6 mice): 1.49E+10
Encapsulation efficiency (%) [2]: 98.29%

CCCCCCCCCOC(=O)OCCCCCCN(CCCCO)CCCCCCC(C)(C)C(=O)OCCCC(CCCCC)CCCCC [39a]
Particle size (nm) [1]: 144.83 nm
Particle-size distribution (PDI) [1]: 0.08
Total photon count in vivo at 6 hours after administration (Total Flux) (C57BL/6 mice): 2.24E+10
Encapsulation efficiency (%) [2]: 93.59%

CCCCCCCCCOC(=O)C(C)(C)CCCCCCN(CCO)CCCCCCOC(=O)OCC(CCCCCCC)CCCCCCC [40a]
Particle size (nm) [1]: 120.90 nm
Particle-size distribution (PDI) [1]: 0.18
Total photon count in vivo at 6 hours after administration (Total Flux) (C57BL/6 mice): 2.03E+11
Encapsulation efficiency (%) [2]: 95.08%

CCCCCCCCCCC(=O)OCC(C)(C)CCCCCN(CCCCCCCC(=O)OC(CCCCCCCCC)CCCCCCCCC)C(=O)SCCCCN(C)C [40b]
Particle size (nm) [1]: 97.10 nm
Particle-size distribution (PDI) [1]: 0.11
Total photon count in vivo at 6 hours after administration (Total Flux) (C57BL/6 mice): 3.70E+10
Encapsulation efficiency (%) [2]: 96.74%

CCCCCCCCCOC(=O)C(C)(C)CCCCCCN(CCO)CCCCCCOC(=O)OCCC(CCCCCC)CCCCCC [41a]
Particle size (nm) [1]: 114.03 nm
Particle-size distribution (PDI) [1]: 0.13
Total photon count in vivo at 6 hours after administration (Total Flux) (C57BL/6 mice): 1.11E+11
Encapsulation efficiency (%) [2]: 94.51%

CCCCCCCCCOC(=O)C(C)(C)CCCCCCN(CCO)CCCCCCOC(=O)OCCCC(CCCCC)CCCCC [42a]
Particle size (nm) [1]: 104.13 nm
Particle-size distribution (PDI) [1]: 0.17
Total photon count in vivo at 6 hours after administration (Total Flux) (C57BL/6 mice): 3.47E+10
Encapsulation efficiency (%) [2]: 95.54%

CCCCCCCCCOC(=O)C(C)(C)CCCCCCN(CCO)CCCCCCOC(=O)OCCCCC(CCCC)CCCC [43a]
Particle size (nm) [1]: 105.63 nm
Particle-size distribution (PDI) [1]: 0.15
Total photon count in vivo at 6 hours after administration (Total Flux) (C57BL/6 mice): 2.23E+10
Encapsulation efficiency (%) [2]: 97.03%

CCCCCCCCCC(=O)OCC1(CCCCCN(CCCCCCCC(=O)OCC(CCCCCCC)CCCCCCC)C(=O)SCCCN(C)C)CC1 [43b]
Particle size (nm) [1]: 121.89 nm
Particle-size distribution (PDI) [1]: 0.08
Total photon count in vivo at 6 hours after administration (Total Flux) (C57BL/6 mice): 1.29E+10
Encapsulation efficiency (%) [2]: 95.26%

CCCCCCCCCOC(=O)OCCCCCCN(CCO)CCCCC(C)(C)CCC(=O)OCC(CCCCCCC)CCCCCCC [44a]
Particle size (nm) [1]: 92.67 nm
Particle-size distribution (PDI) [1]: 0.20
Total photon count in vivo at 6 hours after administration (Total Flux) (C57BL/6 mice): 1.06E+11
Encapsulation efficiency (%) [2]: 96.84%

CCCCCCCCCC(=O)OCC1(CCCCCN(CCCCCCCC(=O)OCC(CCCCCCC)CCCCCCC)C(=O)SCCCCN(C)C)CC1 [44b]
Particle size (nm) [1]: 92.63 nm
Particle-size distribution (PDI) [1]: 0.15
Total photon count in vivo at 6 hours after administration (Total Flux) (C57BL/6 mice): 1.16E+10
Encapsulation efficiency (%) [2]: 97.45%

CCCCCCCCCOC(=O)CC(C)(C)CCCCCN(CCO)CCCCCCOC(=O)OCC(CCCCCCC)CCCCCCC [45a]
Particle size (nm) [1]: 114.73 nm
Particle-size distribution (PDI) [1]: 0.15
Total photon count in vivo at 6 hours after administration (Total Flux) (C57BL/6 mice): 1.22E+11
Encapsulation efficiency (%) [2]: 94.63%

CCCCCCCCCOC(=O)CCC(C)(C)CCCCN(CCO)CCCCCCOC(=O)OCC(CCCCCCC)CCCCCCC [46a]
Particle size (nm) [1]: 110.83 nm
Particle-size distribution (PDI) [1]: 0.16
Total photon count in vivo at 6 hours after administration (Total Flux) (C57BL/6 mice): 9.06E+10
Encapsulation efficiency (%) [2]: 93.03%
